According to patent US20090012103A1, “SUBSTITUTED HETEROCYCLIC COMPOUNDS” (priority 2007, published 2009):

Target: wild-type human cardiac sodium channel, hNav1.5 (Homo sapiens, UniProt Q14524)
Assay: Late INa screening assay (late sodium current, PatchXpress whole cell patch clamp)
Format: cell-based
Conditions: for inhibition at 10 µM: read-out: Late INa % blk
Description: The late sodium current (Late INa) and peak sodium current (Peak INa) assays are performed on an automated electrophysiology platform, PatchXpress 7000A (MDS Analytical Technologies, Sunnyvale, Calif.), which uses the whole cell patch clamp technique to measure currents through the cell membrane of up to 16 cells at a time. The assay uses an HEK293 (human embryonic kidney) cell line heterologously expressing the wild-type human cardiac sodium channel, hNav1.5, purchased from Millipore (Billerica, Mass.). No beta subunits were coexpressed with the Na channel alpha subunit. […] Experiments are carried out at 24-27° C.
For both the Late INa and Peak INa assays, series resistance compensation is set to 50% and whole-cell compensation is performed automatically. […] Currents through open sodium channels are automatically recorded and stored in the DataXpress2 database (MDS Analytical Technologies, Sunnyvale, Calif.). Analysis is performed using DataXpress2 analysis software and data are compiled in Excel.
Compound stocks are routinely made in glass vials to 10 mM in dimethyl sulfoxide (DMSO). In some cases, when compounds are not soluble in DMSO, they are made in 100% ethanol. Stocks are sonicated as necessary. The extracellular solution for screening Late INa is composed of: 140 mM NaCl, 4 mM KCl, 1.8 mM CaCl2, 0.75 mM MgCl2, and 5 mM HEPES with pH adjusted to 7.4 using NaOH. The extracellular solution for screening Peak INa is composed of: 20 mM NaCl, 120 mM N-methyl-D glucamine, 4 mM KCl, 1.8 mM CaCl2, 0.75 mM MgCl2, and 5 mM HEPES with pH adjusted to 7.4 using HCl. The intracellular solution used to perfuse the inside of the cells for both the Late INa and Peak INa assays contains: 120 mM CsF, 20 mM CsCl, 5 mM EGTA, 5 mM HEPES and pH adjusted to 7.4 with CsOH. Compounds are diluted in extracellular solution to 10 μM in glass vials and then transferred to glass well plates before robotic addition to the cells. The 0 Na extracellular solution used at the end of each experiment for the Late INa and Peak INa assays to measure baseline current contains: 140 mM N-methyl-D-glucamine; 4 mM KCl; 1.8 mM CaCl2; 0.75 mM MgCl2; 5 mM HEPES and pH was adjusted to 7.4 with HCl.
For the Late INa assay, sodium channels are activated every 10 seconds (0.1 Hz) by depolarizing the cell membrane to −20 mV for 250 milliseconds (ms) from a holding potential of −120 mV.
All compounds are tested to determine their activity in blocking the late sodium current. Late INa current is generated by adding 10 μM Tefluthrin (pyrethroid) to the extracellular solution while recording Na currents. […] For some experiments, 50 nM ATX II (sea anemone toxin), another late INa activator, was used to generate the late component. […] Baseline current in the absence of Na^+ ions is measured at the end of each experiment (after two additions of 0 Na solution-see above) and is used to calculate the percent block by compound.

wild-type human cardiac sodium channel, hNav1.5, sequence (Q14524 whole entry): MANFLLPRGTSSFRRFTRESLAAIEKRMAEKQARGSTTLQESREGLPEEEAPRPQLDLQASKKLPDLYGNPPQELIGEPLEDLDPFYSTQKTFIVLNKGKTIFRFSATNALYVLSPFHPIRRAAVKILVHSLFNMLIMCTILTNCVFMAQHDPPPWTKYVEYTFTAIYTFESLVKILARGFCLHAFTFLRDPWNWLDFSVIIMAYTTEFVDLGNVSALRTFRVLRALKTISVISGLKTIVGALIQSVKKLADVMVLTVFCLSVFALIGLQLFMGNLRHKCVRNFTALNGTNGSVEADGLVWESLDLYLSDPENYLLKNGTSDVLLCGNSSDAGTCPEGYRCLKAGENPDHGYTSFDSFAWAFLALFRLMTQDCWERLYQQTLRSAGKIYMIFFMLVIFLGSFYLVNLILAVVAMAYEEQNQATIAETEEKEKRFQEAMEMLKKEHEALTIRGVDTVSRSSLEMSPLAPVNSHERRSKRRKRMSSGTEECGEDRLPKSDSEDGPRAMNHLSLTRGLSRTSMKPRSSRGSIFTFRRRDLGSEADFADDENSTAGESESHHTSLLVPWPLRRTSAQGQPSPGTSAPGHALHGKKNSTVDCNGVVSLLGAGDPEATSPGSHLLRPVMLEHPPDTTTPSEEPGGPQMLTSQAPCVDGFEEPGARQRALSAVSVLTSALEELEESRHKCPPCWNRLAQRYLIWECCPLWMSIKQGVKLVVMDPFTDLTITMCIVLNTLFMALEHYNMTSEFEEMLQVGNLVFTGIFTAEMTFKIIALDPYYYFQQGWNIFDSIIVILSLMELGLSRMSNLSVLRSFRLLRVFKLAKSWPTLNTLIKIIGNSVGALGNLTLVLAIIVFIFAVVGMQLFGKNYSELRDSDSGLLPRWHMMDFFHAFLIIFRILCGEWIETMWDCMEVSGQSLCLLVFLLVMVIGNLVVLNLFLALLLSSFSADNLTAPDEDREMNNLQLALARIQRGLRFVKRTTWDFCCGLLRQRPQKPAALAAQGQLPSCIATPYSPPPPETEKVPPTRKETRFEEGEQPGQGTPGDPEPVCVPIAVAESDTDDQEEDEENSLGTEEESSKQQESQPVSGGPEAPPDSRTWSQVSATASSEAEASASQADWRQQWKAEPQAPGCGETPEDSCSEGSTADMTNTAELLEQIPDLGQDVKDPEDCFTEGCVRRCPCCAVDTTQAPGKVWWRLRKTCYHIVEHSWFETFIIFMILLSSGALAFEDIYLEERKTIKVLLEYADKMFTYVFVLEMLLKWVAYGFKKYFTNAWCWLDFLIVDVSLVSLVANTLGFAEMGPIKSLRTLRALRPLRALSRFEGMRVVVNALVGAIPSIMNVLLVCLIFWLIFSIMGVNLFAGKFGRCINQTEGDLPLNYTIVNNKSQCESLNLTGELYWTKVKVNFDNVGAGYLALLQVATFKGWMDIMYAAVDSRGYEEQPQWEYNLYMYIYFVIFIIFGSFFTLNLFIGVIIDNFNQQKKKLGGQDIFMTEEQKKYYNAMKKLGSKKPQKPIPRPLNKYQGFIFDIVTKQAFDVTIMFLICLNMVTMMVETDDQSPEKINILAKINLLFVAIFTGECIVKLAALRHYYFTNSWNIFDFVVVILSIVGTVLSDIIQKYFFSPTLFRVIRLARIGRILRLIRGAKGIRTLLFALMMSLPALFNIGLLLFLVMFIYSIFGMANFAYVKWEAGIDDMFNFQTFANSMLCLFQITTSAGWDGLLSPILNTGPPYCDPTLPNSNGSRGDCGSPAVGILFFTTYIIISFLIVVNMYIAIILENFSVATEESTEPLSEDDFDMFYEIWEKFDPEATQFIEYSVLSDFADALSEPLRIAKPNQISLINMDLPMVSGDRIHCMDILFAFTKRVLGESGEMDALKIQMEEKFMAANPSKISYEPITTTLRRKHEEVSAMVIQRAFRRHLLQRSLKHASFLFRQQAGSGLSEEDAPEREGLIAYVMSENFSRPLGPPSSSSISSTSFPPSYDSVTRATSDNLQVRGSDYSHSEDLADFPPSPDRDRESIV

Compound	inhibition at 10 µM (compound at 10 μM) [%]	other results
CCOC(=O)c1c(C)nc(C)c(C(=O)OCC)c1-c1sc2ccccc2c1C [PT-117, diethyl 2,6-dimethyl-4-(3-methylbenzo[b]thiophen-2-yl)pyridine-3,5-dicarboxylate]	38.9	–
CCOC(=O)C1=C(C)NC(C)=C(C(=O)OCC)C1c1ccc(-c2ccc(Cl)cc2)o1 [PT-118, diethyl 4-(5-(4-chlorophenyl)furan-2-yl)-2,6-dimethyl-1,4-dihydropyridine-3,5-dicarboxylate]	-3.8	–
CCOC(=O)C1=C(C)NC(C)=C(C(=O)OCC)C1c1ccc(-c2ccccc2C(F)(F)F)o1 [PT-119, diethyl 2,6-dimethyl-4-(5-(2-(trifluoromethyl)phenyl)furan-2-yl)-1,4-dihydropyridine-3,5-dicarboxylate]	3.8	–
CCOC(=O)C1=C(C)NC(C)=C(C(=O)OCC)C1c1ccoc1 [PT-120, diethyl 4-(furan-3-yl)-2,6-dimethyl-1,4-dihydropyridine-3,5-dicarboxylate]	25.7	–
CCOC(=O)C1=C(C)NC(C)=C(C(=O)OCC)C1c1ccc(CC)o1 [PT-121, diethyl 4-(5-ethylfuran-2-yl)-2,6-dimethyl-1,4-dihydropyridine-3,5-dicarboxylate]	54.8	–
COCCOC(=O)C1=C(C)NC(C)=C(C(=O)OCCOC)C1c1sccc1Br [PT-125, bis(2-methoxyethyl) 4-(3-bromothiophen-2-yl)-2,6-dimethyl-1,4-dihydropyridine-3,5-dicarboxylate]	10.3	–
CC1=C(C(=O)OC(C)C)C(c2ccc(-c3ccc(Cl)cc3)o2)C(C(=O)OC(C)C)=C(C)N1 [PT-126, diisopropyl 4-(5-(4-chlorophenyl)furan-2-yl)-2,6-dimethyl-1,4-dihydropyridine-3,5-dicarboxylate]	-39	–
CC1=C(C(=O)OC(C)C)C(c2cnn(-c3ccc(F)cc3)c2C)C(C(=O)OC(C)C)=C(C)N1 [PT-127, diisopropyl 4-(1-(4-fluorophenyl)-5-methyl-1H-pyrazol-4-yl)-2,6-dimethyl-1,4-dihydropyridine-3,5-dicarboxylate]	1.1	–
CC1=C(C(=O)OC(C)C)C(c2c[nH]nc2-c2ccc(F)cc2)C(C(=O)OC(C)C)=C(C)N1 [PT-128, diisopropyl 4-(3-(4-fluorophenyl)-1H-pyrazol-4-yl)-2,6-dimethyl-1,4-dihydropyridine-3,5-dicarboxylate]	–	Late INa % blk (compound at 10 μM): 34.1%
CC1=C(C(=O)OCc2ccccc2)C(c2ccc3ccccc3c2)C(C(=O)OCc2ccccc2)=C(C)N1 [PT-129, dibenzyl 2,6-dimethyl-4-(naphthalen-2-yl)-1,4-dihydropyridine-3,5-dicarboxylate]	17.6	–
COc1ccc(COC(=O)C2=C(C)NC(C)=C(C(=O)OCc3ccc(OC)c(OC)c3)C2c2ccc3ccccc3c2)cc1OC [PT-130, bis(3,4-dimethoxybenzyl) 2,6-dimethyl-4-(naphthalen-2-yl)-1,4-dihydropyridine-3,5-dicarboxylate]	15.7	–
CCOC(=O)C1=C(C)NC2=C(C(=O)CC(C)(C)C2)C1c1cccc(C(=O)O)c1 (centres unmarked) [PT-132, 3-(3-(ethoxycarbonyl)-2,7,7-trimethyl-5-oxo-1,4,5,6,7,8-hexahydroquinolin-4-yl)benzoic acid]	-5.3	–
CCOC(=O)C1=C(C)NC2=C(C(=O)CCC2)C1c1c(OC)ccc2ccccc12 (centres unmarked) [PT-134, ethyl 4-(2-methoxynaphthalen-1-yl)-2-methyl-5-oxo-1,4,5,6,7,8-hexahydroquinoline-3-carboxylate]	15.5	–
CCOC(=O)C1=C(CC)NC2=C(C(=O)CCC2)C1c1ccc(OC)c2ccccc12 (centres unmarked) [PT-136, ethyl 2-ethyl-4-(4-methoxynaphthalen-1-yl)-5-oxo-1,4,5,6,7,8-hexahydroquinoline-3-carboxylate]	45.2	–
CCOC(=O)C1=C(C)NC2=C(C(=O)CCC2)C1c1ccc2cc(OC)ccc2c1 (centres unmarked) [PT-137, ethyl 4-(6-methoxynaphthalen-2-yl)-2-methyl-5-oxo-1,4,5,6,7,8-hexahydroquinoline-3-carboxylate]	25.3	–
CCOC(=O)C1=C(C)NC2=C(C(=O)CCC2)C1c1ccc(OC)c2ccc(OC)cc12 (centres unmarked) [PT-138, ethyl 4-(4,7-dimethoxynaphthalen-1-yl)-2-methyl-5-oxo-1,4,5,6,7,8-hexahydroquinoline-3-carboxylate]	34.1	–
CCOC(=O)C1=C(C)NC2=C(C(=O)CCC2)C1c1ccc(N(C)C)c2ccccc12 (centres unmarked) [PT-139, ethyl 4-(4-(dimethylamino)naphthalen-1-yl)-2-methyl-5-oxo-1,4,5,6,7,8-hexahydroquinoline-3-carboxylate]	21.8	–
CCOC(=O)C1=C(C)NC2=C(C(=O)CCC2(C)C)C1c1ccc(Cl)s1 (centres unmarked) [PT-146, ethyl 4-(5-chlorothiophen-2-yl)-2,8,8-trimethyl-5-oxo-1,4,5,6,7,8-hexahydroquinoline-3-carboxylate]	31.2	–
CCCC1=C(C(=O)OCC)C(c2ccsc2)C2=C(CCCC2=O)N1 (centres unmarked) [PT-148, ethyl 5-oxo-2-propyl-4-(thiophen-3-yl)-1,4,5,6,7,8-hexahydroquinoline-3-carboxylate]	7.6	–
CCCC1=C(C(=O)OCC)C(c2ccsc2)C2=C(CC(C)(C)CC2=O)N1 (centres unmarked) [PT-151, ethyl 7,7-dimethyl-5-oxo-2-propyl-4-(thiophen-3-yl)-1,4,5,6,7,8-hexahydroquinoline-3-carboxylate]	35	–
CCCC1=C(C(=O)OCC)C(c2ccsc2)C2=C(CC(C(C)C)CC2=O)N1 (centres unmarked) [PT-152, ethyl 7-isopropyl-5-oxo-2-propyl-4-(thiophen-3-yl)-1,4,5,6,7,8-hexahydroquinoline-3-carboxylate]	41.2	–
COCCOC(=O)C1=C(C)NC2=C(C(=O)CC(C)(C)C2)C1c1ccc(Oc2ccccc2)cc1 (centres unmarked) [PT-156, 2-methoxyethyl 2,7,7-trimethyl-5-oxo-4-(4-phenoxyphenyl)-1,4,5,6,7,8-hexahydroquinoline-3-carboxylate]	36.6	–
CC1=C(C(=O)OC(C)C)C(c2cccc3ccccc23)C2=C(CCCC2=O)N1 (centres unmarked) [PT-158, isopropyl 2-methyl-4-(naphthalen-1-yl)-5-oxo-1,4,5,6,7,8-hexahydroquinoline-3-carboxylate]	38.7	–
CC1=C(C(=O)OC(C)C)C(c2cc(-c3ccccc3)cs2)C2=C(CC(C)(C)CC2=O)N1 (centres unmarked) [PT-159, isopropyl 2,7,7-trimethyl-5-oxo-4-(4-phenylthiophen-2-yl)-1,4,5,6,7,8-hexahydroquinoline-3-carboxylate]	46.3	–
CC1=C(C(=O)OC(C)C)C(c2cnn(-c3ccccc3C)c2C)C2=C(CC(C)(C)CC2=O)N1 (centres unmarked) [PT-161, isopropyl 2,7,7-trimethyl-4-(5-methyl-1-o-tolyl-1H-pyrazol-4-yl)-5-oxo-1,4,5,6,7,8-hexahydroquinoline-3-carboxylate]	6.8	–
CC1=C(C(=O)N2CCN(c3ccccc3)CC2)C(c2ccsc2)C2=C(CCCC2=O)N1 (centres unmarked) [PT-166, 2-methyl-3-(4-phenylpiperazine-1-carbonyl)-4-(thiophen-3-yl)-4,6,7,8-tetrahydroquinolin-5(1H)-one]	–	effect on late sodium current (result in words): potentiated late sodium current
CC1=C(C(=O)N2CCN(c3ccc(Cl)cc3)CC2)C(c2ccsc2)C2=C(CCCC2=O)N1 (centres unmarked) [PT-167, 3-(4-(4-chlorophenyl)piperazine-1-carbonyl)-2-methyl-4-(thiophen-3-yl)-4,6,7,8-tetrahydroquinolin-5(1H)-one]	-10	–
CC1=C(C(=O)N2CCC(c3ccccc3)CC2)C(c2ccc3ccccc3c2)C2=C(CCCC2=O)N1 (centres unmarked) [PT-169, 2-methyl-4-(naphthalen-2-yl)-3-(4-phenylpiperidine-1-carbonyl)-4,6,7,8-tetrahydroquinolin-5(1H)-one]	11.8	–
CC1=C(C(=O)N2CCC(c3ccccc3)CC2)C(c2cccc3ccccc23)C2=C(CCCC2=O)N1 (centres unmarked) [PT-170, 2-methyl-4-(naphthalen-1-yl)-3-(4-phenylpiperidine-1-carbonyl)-4,6,7,8-tetrahydroquinolin-5(1H)-one]	9.8	–
